Our source for the IC50 values is ChEMBL document CHEMBL1154302, “Cytotoxic acacic acid glycosides from the roots of Albizia coriaria” (J Nat Prod, 2009).

For one assay, the system named is HCT-116. Nature of the assay: Cytotoxicity against human HCT116 cells after 1 hr by MTT assay. The conditions noted are these: HCT-116, 1 h. The assay is classed as functional, cell-based. Background: Formazan colour is commonly taken as a measure of viable cells.
A further assay concerns HT-29. Nature of the assay: Cytotoxicity against human HT-29 cells after 1 hr by MTT assay. It is filed as functional, cell-based. The conditions noted are these: HT-29, 1 h.

For orientation: IC50 means the concentration that inhibits the measured activity by half. Regarding `C=C[C@](C)(CC/C=C(\C)C(=O)O[C@H]1[C@H](O)[C@@H](O)[C@H](O[C@](C)(C=C)CC/C=C(\C)C(=O)O[C@H]2[C@H](O)[C@@H](O)[C@H](O[C@](C)(C=C)CC/C=C(/C)C(=O)O[C@H]3C[C@]4(C(=O)O[C@@H]5O[C@H](CO)[C@@H](O)[C@H](O)[C@H]5O[C@@H]5O[C@@H](C)[C@H](O[C@@H]6O[C@@H](CO)[C@H](O)[C@H]6O)[C@@H](O[C@@H]6O[C@H](CO)[C@@H](O)[C@H](O)[C@H]6O)[C@H]5O)[C@H](O)C[C@]5(C)C(=CC[C@@H]6[C@@]7(C)CC[C@H](O[C@@H]8O[C@H](CO[C@@H]9O[C@H](C)[C@H](O)[C@H](O)[C@H]9O)[C@@H](O)[C@H](O)[C@H]8O[C@@H]8O[C@H](CO)[C@@H](O)[C@H](O)[C@H]8O)C(C)(C)C7CC[C@]65C)[C@@H]4CC3(C)C)O[C@@H]2C)O[C@@H]1C)O[C@@H]1O[C@H](C)[C@@H](O)[C@H](O)[C@H]1O` (some centres undefined) [CORIARIOSIDE A], the IC50 was 4.2 µM in the assay on HCT-116 and 6.7 µM in the assay on HT-29.

With `CC(=O)O[C@H]1C(=O)[C@@]2(C)[C@H]([C@H](OC(=O)c3ccccc3)[C@]3(O)C[C@H](OC(=O)[C@H](O)[C@@H](NC(=O)c4ccccc4)c4ccccc4)C(C)=C1C3(C)C)[C@]1(OC(C)=O)CO[C@@H]1C[C@@H]2O` [PACLITAXEL], the IC50 with HCT-116 turned out to be 0.0035 µM; with HT-29 it was 0.0034 µM.
